Measured values from ChEMBL document CHEMBL3880382, “TRH-like peptide derivatives as inhibitors of the TRH-degrading ectoenzyme” (2010).
The source made the active and inactive calls. The calls are words filed in the database; no cut-off is given here. Non-standard residues stand in square brackets, D forms with d. Residues, ends and D or L forms follow the SMILES beside them. *: point of attachment. AMC = Cc1cc(=O)oc2cc(N*)ccc12; pGlu = O=C1CC[C@@H](C(=O)O)N1

How the values were obtained:
Rattus norvegicus [1] = assay: Behavioral effect in cannulated Wistar rat assessed as number of wet dog shakes at 10 mg/kg, ip measured every 5 mins for 30 secs during 40 mins observation period; assay type: functional
[2] = biological target: T1, Thyrotropin-releasing hormone receptor (Rattus norvegicus, UniProt Q01717); assay: Displacement of [3H]-3MeHis-TRH from TRH receptor in Sprague-Dawley rat cortical membranes
T1 sequence (Q01717 whole entry): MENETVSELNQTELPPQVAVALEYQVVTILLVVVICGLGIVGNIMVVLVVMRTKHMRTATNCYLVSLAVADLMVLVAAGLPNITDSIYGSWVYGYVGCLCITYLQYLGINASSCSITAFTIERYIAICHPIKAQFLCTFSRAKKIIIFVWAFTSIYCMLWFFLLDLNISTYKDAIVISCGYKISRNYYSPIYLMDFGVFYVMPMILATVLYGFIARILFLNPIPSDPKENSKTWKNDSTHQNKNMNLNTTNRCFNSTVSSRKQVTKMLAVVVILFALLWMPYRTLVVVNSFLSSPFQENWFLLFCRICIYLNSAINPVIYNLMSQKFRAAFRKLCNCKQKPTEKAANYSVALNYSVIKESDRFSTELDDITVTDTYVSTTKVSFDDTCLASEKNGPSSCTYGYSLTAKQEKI

[3] = biological target: T2, Thyrotropin-releasing hormone-degrading ectoenzyme (Homo sapiens, UniProt Q9UKU6); assay: Competitive inhibition of TRH-DE (unknown origin)
T2 sequence (Q9UKU6 whole entry): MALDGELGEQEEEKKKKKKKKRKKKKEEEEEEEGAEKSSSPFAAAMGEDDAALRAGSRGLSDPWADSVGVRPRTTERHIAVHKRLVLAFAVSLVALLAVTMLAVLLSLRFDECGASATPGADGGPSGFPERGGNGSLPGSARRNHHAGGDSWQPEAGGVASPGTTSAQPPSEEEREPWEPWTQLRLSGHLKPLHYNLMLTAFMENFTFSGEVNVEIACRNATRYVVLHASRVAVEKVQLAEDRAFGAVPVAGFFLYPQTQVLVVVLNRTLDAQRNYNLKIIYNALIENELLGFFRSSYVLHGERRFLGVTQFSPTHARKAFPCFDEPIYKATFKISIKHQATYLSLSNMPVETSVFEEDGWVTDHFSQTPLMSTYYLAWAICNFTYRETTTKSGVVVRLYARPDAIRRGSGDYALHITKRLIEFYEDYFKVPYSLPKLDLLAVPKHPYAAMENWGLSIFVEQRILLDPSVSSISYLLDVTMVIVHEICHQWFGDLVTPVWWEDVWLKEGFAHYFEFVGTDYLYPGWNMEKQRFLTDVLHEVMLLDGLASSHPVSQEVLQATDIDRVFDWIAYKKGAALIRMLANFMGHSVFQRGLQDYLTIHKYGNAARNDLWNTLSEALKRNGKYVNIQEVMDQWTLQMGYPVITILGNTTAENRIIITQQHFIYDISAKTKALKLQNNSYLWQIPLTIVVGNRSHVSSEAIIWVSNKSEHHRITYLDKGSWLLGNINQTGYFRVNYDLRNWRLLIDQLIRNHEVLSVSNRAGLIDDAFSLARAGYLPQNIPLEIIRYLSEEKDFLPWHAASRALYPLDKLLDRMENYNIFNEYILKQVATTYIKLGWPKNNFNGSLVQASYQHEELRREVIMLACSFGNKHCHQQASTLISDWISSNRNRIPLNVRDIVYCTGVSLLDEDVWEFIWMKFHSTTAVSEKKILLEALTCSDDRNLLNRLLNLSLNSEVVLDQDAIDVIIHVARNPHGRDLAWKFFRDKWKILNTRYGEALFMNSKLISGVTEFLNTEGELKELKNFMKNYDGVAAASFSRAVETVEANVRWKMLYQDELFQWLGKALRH

[4] = biological target: Thyrotropin releasing hormone degrading enzyme (Sus scrofa, UniProt A0A287AP33); assay: Inhibition of pig brain TRH-DE using Glp-His-ProAMC as substrate by DPP-4-based continuous fluorometric method
Sequence of Thyrotropin releasing hormone degrading enzyme (A0A287AP33 whole entry): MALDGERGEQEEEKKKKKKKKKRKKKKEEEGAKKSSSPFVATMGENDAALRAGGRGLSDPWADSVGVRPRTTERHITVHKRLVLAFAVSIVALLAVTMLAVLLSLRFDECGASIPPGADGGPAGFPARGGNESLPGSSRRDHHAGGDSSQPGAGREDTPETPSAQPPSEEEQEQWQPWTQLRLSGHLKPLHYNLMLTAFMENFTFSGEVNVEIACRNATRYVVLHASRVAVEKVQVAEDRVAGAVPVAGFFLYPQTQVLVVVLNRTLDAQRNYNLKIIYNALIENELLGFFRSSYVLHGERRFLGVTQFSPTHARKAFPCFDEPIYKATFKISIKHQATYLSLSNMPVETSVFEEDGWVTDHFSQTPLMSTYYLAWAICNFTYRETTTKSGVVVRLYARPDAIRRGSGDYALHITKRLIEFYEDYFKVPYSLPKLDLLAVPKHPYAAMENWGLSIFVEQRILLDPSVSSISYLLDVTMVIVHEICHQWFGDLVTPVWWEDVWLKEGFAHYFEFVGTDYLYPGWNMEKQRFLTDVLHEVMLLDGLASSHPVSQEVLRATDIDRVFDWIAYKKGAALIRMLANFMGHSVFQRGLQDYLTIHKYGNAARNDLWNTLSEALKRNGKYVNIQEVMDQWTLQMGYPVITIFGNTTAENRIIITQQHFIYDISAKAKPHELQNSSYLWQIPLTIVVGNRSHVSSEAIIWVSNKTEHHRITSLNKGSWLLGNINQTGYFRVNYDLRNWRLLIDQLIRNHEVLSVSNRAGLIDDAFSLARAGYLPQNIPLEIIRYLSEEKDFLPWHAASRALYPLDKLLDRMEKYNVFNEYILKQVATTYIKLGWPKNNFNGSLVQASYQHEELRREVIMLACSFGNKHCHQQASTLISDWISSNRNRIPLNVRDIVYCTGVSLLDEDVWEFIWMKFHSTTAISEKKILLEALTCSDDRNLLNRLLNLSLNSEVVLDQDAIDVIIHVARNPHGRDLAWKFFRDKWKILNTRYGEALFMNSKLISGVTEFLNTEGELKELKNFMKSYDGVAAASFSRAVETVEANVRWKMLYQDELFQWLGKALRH

[5] = biological target: T3, Thyrotropin releasing hormone degrading enzyme (Sus scrofa) (UniProt A0A287AP33); assay: Inhibition of pig brain TRH-DE at 1 uM using Glp-His-ProAMC as substrate by DPP-4-based continuous fluorometric method
T3 sequence (A0A287AP33 as listed by the source): as the sequence (A0A287AP33 whole entry) above

Rattus norvegicus [6] = assay: In vivo inhibition of TRH-DE in cannulated Wistar rat assessed as increase in TRH-mediated wet dog shakes at 5 ug in 1 ul, icv followed by TRH addition measured after 30 mins relative to control; assay type: functional
Rattus norvegicus [7] = assay: In vivo inhibition of TRH-DE in cannulated Wistar rat assessed as increase in TRH-mediated grooming at 10 mg/kg, ip measured every 5 mins for 30 secs during 40 mins observation period; assay type: functional, organism-based
Rattus norvegicus [8] = assay: In vivo inhibition of TRH-DE in cannulated Wistar rat assessed as increase in TRH-mediated sniffing at 10 mg/kg, ip measured every 5 mins for 30 secs during 40 mins observation period; assay type: functional, organism-based
Rattus norvegicus [9] = assay: In vivo inhibition of TRH-DE in cannulated Wistar rat assessed as increase in TRH-mediated chewing at 10 mg/kg, ip measured every 5 mins for 30 secs during 40 mins observation period; assay type: functional, organism-based
Rattus norvegicus [10] = assay: In vivo inhibition of TRH-DE in cannulated Wistar rat assessed as increase in TRH-mediated wet dog shakes at 10 mg/kg, ip measured for last 25 mins of the 40 mins observation period; assay type: functional, organism-based
[11] = biological target: T3, Thyrotropin releasing hormone degrading enzyme (Sus scrofa); assay: Reversible inhibition of pig brain TRH-DE using Glp-His-ProAMC as substrate at 1 uM preincubated for 75 mins by DPP-4-based continuous fluorometric method

Ki [2] [µM]	Ki [3] [µM]	Ki [4] [µM]	inhibition [5] [%]	inhibition [11]	Structure (SMILES)	Activity (Rattus norvegicus [1])	fold change (FC) (Rattus norvegicus [6])	inhibition (Rattus norvegicus [7])	inhibition (Rattus norvegicus [8])	inhibition (Rattus norvegicus [9])	inhibition (Rattus norvegicus [10])
0.0224	8				O=C(O)C(Cc1ccccc1)N[C@@H](Cc1cn(Cc2ccccc2)cn1)C(=O)Nc1ccc2ccccc2c1 (some centres not stated)	0					
47.9		0.41 to 0.97	50	Active	Cc1cc(=O)oc2cc(NC(=O)[C@@H]3CCCN3C(=O)[C@H](CC(N)=O)NC(=O)[C@@H]3CCC(=O)N3)ccc12 ([pGlu]-Asn-Pro-{AMC})		18	Active	Active	Active	Active
